Measurements published in patent publication US8772348B2, “Materials and methods for pest control” (priority 2009, dated 2014).
Where two headings read alike, the source gives them in different places.

Key:
[1] = system: Susceptible Musca domestica; experiment: Contact bioassay of emulsified concentrate formulations on filter paper discs; details: EC formulation on filter paper
Experimental: A commercially-available permethrin 57 g L^−1 EC (Ectiban EC 57; Universal Cooperatives, Minneapolis, Minn.) was included for comparison. Except rosalva, the 50% EC semiochemical formulations were generated by combining 500 mL AI, 430 mL canola oil (Publix, Lakeland, Fla.), 10 mL xylene, 50 mL Triton X-100 (Acros Organics Nev., Fair Lawn, N.J.) and 10 mL Agsolex-8 (International Specialty Products, Wayne, N.J.). The rosalva formulation contained all of the above-mentioned ingredients, with canola oil concentration reduced to 400 mL L^−1, Triton X-100 concentration increased to 75 mL L^−1, and 5 mL L^−1 Antifoam B silicone emulsion (Mallinckrodt Baker, Phillipsburg, N.Y.) included.
Briefly, Whatman No. 1 filter paper discs (63.58 cm^2) are impregnated with 1.5 ml serially diluted formulations in 20 emulsified concentrates and 50 emulsified concentrates, respectively, and subsequently dried for about an hour. Then, house flies are divided into seven sets: three sets as the experiment, three sets as the positive control, and one set as the negative control. Each set consists of twenty six-to-ten-day old adult flies. […] The positive control set is exposed to paper discs impregnated with geranyl acetone, rosalva or citronellol. The negative control set is exposed to paper discs impregnated with acetone solution. Throughout the exposure periods, each set is provided with 10% sucrose solution and sufficient air circulation. Ataxic flies are considered dead. The mortality rate and the LC values are determined using the same procedures as is illustrated in Example 2.

[2] = system: Field-collected Musca domestica; details: for % mortality: formulation on plywood panels, 3.33 mg/cm^2 (footnote 1.67)
Experimental: Briefly, one Musca domestica strain and one other Musca domestica strain are obtained as is illustrated in Example 3. Each fly strain is divided into seven sets: three sets as the experiment, three sets as the positive control, and one set as the negative control. Flies are assayed on unpainted plywood panel boards that have been previously exposed to natural summer weather conditions for at least 10 days. […] The formulation is applied at a uniform rate of 7.5 ml per 225 cm^2, sufficient to cover the entire panel without dripping. Subsequently, the treated panel boards are dried for about an hour.
(§1) In each set, 20 adult flies are placed onto panel boards. Flies are secured with wooden embroidery hoops, covered with a coarse mesh screen cloth previously sprayed with the respective formulation. After 4 hours, flies are transferred into a clean jar. The mortality rate is measured 24 hours after the transfer, and is determined using the same procedures as are illustrated in Example 2.
(§2) Plywood panels (225 cm^2) were treated with chemicals at a rate of 1.67 mg cm^−2. Panels were treated on day 0 and was held until exposure on post-treatment day. Mosquitoes were exposed to chemicals for 2 h, and mortality rate was assessed 24 h after initial exposure. Control contained formulation ingredients without semiochemicals.

[3] = system: Field-collected Musca domestica
Experimental: Briefly, one Musca domestica strain is collected from the University of Florida dairy unit in Alachua County, Florida, U.S.A. (“the Alachua strain”). The other Musca domestica strain is collected from a dairy farm in Gilchrist County, Florida, U.S.A. (“the Gilchrist strain”). Both strains are colonized adults, and are subsequently reared at 27° C. in the laboratory of the Entomology and Nematology Department, University of Florida.
The positive control is exposed to serial dilutions of permethrin. The negative control is not exposed to any chemical compound. 1 mL of insecticide was dissolved in acetone (concentrations between 0.5 and 20 mg mL^−1) in a 60 mL glass jar having a 67.86 cm^2 inside surface area (Wheaton, Millville, N.J.). Jars were allowed to dry for 1 h prior to fly introduction. Flies were held in jars for 2, 4 and 24 h, and fly mortality rate was scored at that time. Sugar water (10%) was provided in all assays, unless stated otherwise. The mortality rate is measured after a 2-hour, 4-hour, and 24-hour period. Ataxic flies are considered dead. The mortality rate and the LC values are determined using the same procedures as is illustrated in Example 2.

Stomoxys calcitrans = system: Stomoxys calcitrans
Experimental: Briefly, each fly strain is divided into eight sets: three sets as the experiment, four sets as the positive control, and one set as the negative control. Flies are assayed on unpainted plywood panel boards that have been previously exposed to natural summer weather conditions for at least 10 days. […] The positive control set is treated with permethrin, geranyl acetone, rosalva or citronellol. The negative control set is treated with water. The formulation is applied at a uniform rate of 7.5 ml per 225 cm^2, sufficient to cover the entire panel without dripping. Subsequently, the treated panel boards are dried for about an hour.
as §1, with “onto the” for “onto”
as §2, with “mgcm^−2.” for “mg cm^−2.”, “and” for “and was”

[4] = system: Susceptible Musca domestica; experiment: Glass jar contact bioassay, susceptible (laboratory) house flies; details: for decline in toxicity after a 24-hour holding period subsequent to an initial 2-hour exposure: 2 h transferred vs 2 h constant
Experimental: Briefly, adult house flies, Musca domestica, are obtained from strains that have been reared in the laboratory of the Entomology and Nematology Department, University of Florida. […] The positive control is exposed to serial dilutions of permethrin. The negative control is not exposed to any chemical compound. The mortality rate is measured after 2-hour, 4-hour, and 24-hour periods. Ataxic flies are considered dead.
The ability of house flies to recover from insecticidal exposure is also investigated. After a 2-hour exposure, each set of flies is transferred into a separate glass jar. The mortality rate is measured at two time intervals: first, immediately at the transfer (2 hours after the initial exposure), and second, 22 hours after the transfer (24 hours after the initial exposure).
The mortality rate is analyzed using the PROBIT model. The data is adjusted based on the mortality rate in the control set using the Abbott's transformation, and the percent mortality is further analyzed based on ANOVA measurement. The experiment is repeated at least three times. The data is discarded if the mortality rate in the control set exceeds 10%. The LC50 and LC90 values are further determined using the SAS (Cary, N.C., USA) statistical software. For each chemical compound, at least 1280 flies are examined.

[5] = Alachua strain, 2 h constant exposure
[6] = Alachua strain, 4 h constant exposure
[7] = Alachua strain, 24 h constant exposure
[8] = Gilchrist strain, 2 h constant exposure
[9] = Gilchrist strain, 4 h constant exposure
[10] = Gilchrist strain, 24 h constant exposure
[11] = 2 h constant exposure, glass jar
[12] = 2 h exposure, transferred to clean jars, mortality 24 h after initial exposure
[13] = 4 h constant exposure, glass jar

Structure (SMILES) | LC90 ([1]; 24 h constant exposure) | LC90 ([1]; 48 h constant exposure) | LC90 [3, 5] | LC90 [3, 6] | LC90 [3, 7] | LC90 [3, 8] | LC90 [3, 9] | LC90 [3, 10] | LC90 [4, 11] | LC90 [4, 12] | decline in toxicity after a 24-hour holding period subsequent to an initial 2-hour exposure [4] | LC90 [4, 13] | also measured
CC1(C)CCCC2=C1CC(C=O)CC2 (stereo not drawn) [Cyclemone A, 2-naphthaldehyde, 1,2,3,4,5,6,7,8-octahydro-8,8-dimethyl] | 759.00 μg cm^−2 | 659.92 μg cm^−2 | 74.41 μg cm^−2 | 69.96 μg cm^−2 | 51.09 μg cm^−2 | 72.60 μg cm^−2 | 79.28 μg cm^−2 | 51.58 μg cm^−2 | 69.90 μg cm^−2 | 68.95 μg cm^−2 | no decline in toxicity | 71.44 μg cm^−2 | LC50 ([1]; 24 h constant exposure): 468.96 μg cm^−2; LC50 ([1]; 48 h constant exposure): 440.04 μg cm^−2; % mortality ([2]; Alachua strain): 100.00a %; % mortality ([2]; Gilchrist strain): 95.00a %; LC50 [3, 5]: 54.46 μg cm^−2; LC50 [3, 6]: 52.60 μg cm^−2; LC50 [3, 7]: 32.29 μg cm^−2; LC50 [3, 8]: 54.11 μg cm^−2; LC50 [3, 9]: 46.52 μg cm^−2; LC50 [3, 10]: 32.32 μg cm^−2; % mortality (Stomoxys calcitrans; S. calcitrans, formulation on plywood panels at 1.67 mg cm^−2, mortality 24 h after): 100.00a %; LC50 [4, 11]: 48.24 μg cm^−2; LC50 [4, 12]: 47.29 μg cm^−2; LC50 [4, 13]: 44.52 μg cm^−2; mortality rate ([4]; after 24-hour exposure): ~100%
C/C=C/C(=O)C1=C(C)CCCC1(C)C [Beta damascone, beta damascone] | 618.12 μg cm^−2 | 516.16 μg cm^−2 | 136.39 μg cm^−2 | 124.69 μg cm^−2 | 47.00 μg cm^−2 | 126.00 μg cm^−2 | 70.59 μg cm^−2 | 56.21 μg cm^−2 | 78.46 μg cm^−2 | 74.63 μg cm^−2 | no decline in toxicity | 53.59 μg cm^−2 | mortality rate ([2]; in vivo): 95.0-100.0%; mortality rate (Stomoxys calcitrans; in vivo): 99-100%; mortality rate ([4]; in vivo): ~100%
